According to US20130288990A1, “CONTROLLING PESTS BY COMBINING INSECTICIDES AND TRANSGENIC PLANTS BY APPLYING DIRECTLY TO LEAVES AND ROOTS” (priority 2007, published 2013):

Legend:
Format in all cases: in vivo
Aphis gossypii = Aphis gossypii test (leaf application), transgenic cotton
From the text: (§1) A synergistic effect in insecticides and acaricides is always present when the effect of the present invention's combinations is greater than the expected effect, which for a given combination can be calculated after S. R. Colby, Weeds 15 (1967), 20-22 as follows:
(§2) when • X is the kill rate expressed in % of the untreated control on using active compound A at an application rate of m g/ha or in a concentration of m ppm, • Y is the kill rate expressed in % of the untreated control on using active compound B at an application rate of n g/ha or in a concentration of n ppm and • Z is the kill rate expressed in % of the untreated control on using active compound C at an application rate of r g/ha or in a concentration of r ppm, • E is the efficacy on using active compounds A and B and C in application rates of m and n and r g/ha then
If the actual kill rate is greater than calculated, then the killing effect of the combination is superadditive, i.e., a synergistic effect is present. In this case, the actually observed kill rate has to be greater than that calculated from the above-recited formula for the expected kill rate (E). […]
After the desired time, the kill in % is determined 100% means that all the aphids were killed; 0% means that no aphids were killed.

Heliothis armigera = Heliothis armigera test (leaf application), transgenic cotton
From the text: as §1, §2
(§3) If the actual kill rate is greater than calculated, then the killing effect of the combination is superadditive, i.e., a synergistic effect is present. In this case, the actually observed kill rate has to be greater than that calculated from the above-recited formula for the expected kill rate (E).
Individually potted transgenic cotton plants with Lepidoptera resistance and herbicide resistance (line DP444 BG/RR) are treated with the desired product against the cotton ball worm (Heliothis armigera).
(§4) After the desired time, the kill in % is determined 100% means that all the caterpillars were killed; 0% means that no caterpillars were killed.

Spodoptera frugiperda [1] = assay: Spodoptera frugiperda test (leaf application), transgenic cotton
From the text: as §1, §2, §3
Individually potted transgenic cotton plants with Lepidoptera resistance and herbicide resistance (line DP444 BG/RR) are treated with the desired product against the army worm (Spodoptera frugiperda)
as §4

Spodoptera exigua = Spodoptera exigua test (leaf application), transgenic maize
From the text: as §1, §2, §3
Pots each holding 5 transgenic maize plants with Lepidoptera, Coleoptera and/or herbicide resistance are treated in 2 replications against the small mottled willow (Spodoptera exigua).
as §4

Spodoptera frugiperda [2] = assay: Spodoptera frugiperda test (leaf application), transgenic maize
From the text: as §1, §2, §3
Pots each holding 5 transgenic maize plants with Lepidoptera, Coleoptera and/or herbicide resistance are treated in 2 replications against the army worm (Spodoptera frugiperda).
as §4

Spodoptera frugiperda [3] = assay: Spodoptera frugiperda test (drench application), transgenic maize
From the text: as §1, §2, §3
The earth of the pots each with 5 transgenic maize plants with Lepidoptera, Coleoptera and/or herbicide resistance is drenched with the desired product. Then, the plants are infected with larvae of the army worm (Spodoptera frugiperda).
as §4

## CNC(=O)c1cc(Cl)cc(C)c1NC(=O)c1cc(Br)nn1-c1ncccc1Cl [(I-1)]
Aphis gossypii; 0.16 ppm
  Kill in % after 4 d: 0%
Heliothis armigera; 0.032 ppm
  Kill in % after 4 d: 50%
Spodoptera frugiperda [1]; 0.032 ppm
  Kill in % after 4 d: 70%
  Kill in % after 6 d: 15%
Spodoptera exigua; 0.032 ppm
  Kill in % after 4 d: 0%
Spodoptera exigua; 0.16 ppm
  Kill in % after 1 d: 0%
  Kill in % after 4 d: 0%
Spodoptera frugiperda [2]; 0.0064 ppm
  Kill in % after 4 d: 0%
Spodoptera frugiperda [2]; 0.16 ppm
  Kill in % after 1 d: 0%
Spodoptera frugiperda [3]; 4 ppm
  Kill in % after 4 d: 0%
Spodoptera frugiperda [3]; 20 ppm
  Kill in % after 1 d: 30%
  Kill in % after 3 d: 45%
  Kill in % after 4 d: 50%

## CN/C(=N\[N+](=O)[O-])NCc1cnc(Cl)s1 [Clothianidin]
Heliothis armigera; 0.16 ppm
  Kill in % after 4 d: 0%
Spodoptera frugiperda [1]; 0.16 ppm
  Kill in % after 4 d: 0%
Spodoptera exigua; 4 ppm
  Kill in % after 1 d: 0%
Spodoptera frugiperda [3]; 4 ppm
  Kill in % after 4 d: 10%

## N#Cc1nn(-c2c(Cl)cc(C(F)(F)F)cc2Cl)c(N)c1[S+]([O-])C(F)(F)F (stereo not drawn) [Fipronil]
Aphis gossypii; 4 ppm
  Kill in % after 4 d: 25%
Spodoptera exigua; 4 ppm
  Kill in % after 4 d: 0%
Spodoptera frugiperda [3]; 20 ppm
  Kill in % after 4 d: 0%

## O=[N+]([O-])NC1=NCCN1Cc1ccc(Cl)nc1 [Imidacloprid]
Spodoptera frugiperda [1]; 4 ppm
  Kill in % after 6 d: 10%
Spodoptera exigua; 4 ppm
  Kill in % after 1 d: 0%
Spodoptera frugiperda [2]; 4 ppm
  Kill in % after 1 d: 0%
Spodoptera frugiperda [3]; 4 ppm
  Kill in % after 3 d: 0%

## Abamectin
Heliothis armigera; 0.16 ppm
  Kill in % after 4 d: 30%
Spodoptera exigua; 0.16 ppm
  Kill in % after 4 d: 35%
Spodoptera frugiperda [2]; 0.16 ppm
  Kill in % after 1 d: 10%
Spodoptera frugiperda [3]; 4 ppm
  Kill in % after 1 d: 0%
  Kill in % after 4 d: 0%

## Spinosad
Heliothis armigera; 0.16 ppm
  Kill in % after 4 d: 20%
Spodoptera exigua; 0.16 ppm
  Kill in % after 4 d: 20%
Spodoptera frugiperda [2]; 0.16 ppm
  Kill in % after 4 d: 0%
Spodoptera frugiperda [3]; 4 ppm
  Kill in % after 4 d: 0%
